Consider 17 compounds from ChEMBL document CHEMBL3217442, “Synthesis and bioevaluation of aryl hydroxamates distinguishing between NAD+ and ATP-dependent DNA ligases” (Medchemcomm, 2012).

≈ marks a conversion by molar mass, not a printed value. Calls of active or inactive are those of the source. Some results are limits rather than exact numbers.

For assay [1], the system named is Escherichia coli. Description: Antibacterial activity against Escherichia coli GR501 harboring temperature sensitive lig251 mutant rescued with T4 DNA ligase after 20 hrs. The assay is classed as functional.
The nature of assay [2]: Ratio of IC50 for human DNA ligase 1 to IC50 for Mycobacterium tuberculosis DNA LigA.
Assay [3] can be described thus: Ratio of IC50 for Bacteriophage T4 DNA ligase to IC50 for Mycobacterium tuberculosis DNA LigA.
A short description of assay [4]: Inhibition of Mycobacterium tuberculosis DNA LigA using 22-mer and 18-mer DNA complementary strand as substrate after 1 hr by 15% polyacrylamide gel electrophoresis.
Assay [5] in a line: Inhibition of Bacteriophage […] using 22-mer and 18-mer DNA complementary strand as substrate after 1 hr by 15% polyacrylamide gel electrophoresis. Also on record: species or system Tequatrovirus T4.
Assay [6] has as its system Salmonella typhimurium. Description: Antibacterial activity against Salmonella typhimurium LT2 expressing LigA after 20 hrs. The class given is functional.
In assay [7] the test system is Salmonella typhimurium. Nature of the assay: Antibacterial activity against Salmonella typhimurium TT15151 harboring LigA null mutant rescued with ATP-dependent DNA ligase after 20 hrs. The class given is functional, Salmonella enterica subsp. enterica serovar Typhimurium.
For another assay, the species on record is Bos taurus. Description: Displacement of ethidium bromide from calf thymus DNA assessed as relative fluorescence intensity at 250 uM.
A further assay concerns the target DNA ligase 1 (Homo sapiens, UniProt P18858). Description: Inhibition of human DNA ligase 1 expressed in Escherichia coli BL21 (DE3) using 22-mer and 18-mer DNA complementary strand as substrate after 1 hr by 15% polyacrylamide gel electrophoresis.
Assay [8] concerns Escherichia coli. Description: Binding affinity to Escherichia coli pUC18 DNA after 1 hr by gel shift assay.
The subject of assay [9] is Salmonella typhimurium. Nature of the assay: Bactericidal activity against Salmonella typhimurium LT2 expressing LigA assessed as bacterial cell viability at 0.5 to 2.5 times MIC after 5 hrs. The assay is classed as functional, organism-based. Particulars: Salmonella enterica subsp. enterica serovar Typhimurium.
The nature of assay [10]: Competitive inhibition of Mycobacterium tuberculosis DNA LigA using NDA+ as substrate by double reciprocal plot analysis.
The test system of assay [11] is Salmonella typhimurium. Description: Bactericidal activity against Salmonella typhimurium TT15151 harboring LigA null mutant rescued with ATP-dependent DNA ligase assessed as bacterial cell viability at 0.5 to 2.5 times MIC after 5 hrs. The assay is classed as functional, organism-based. Particulars: Salmonella enterica subsp. enterica serovar Typhimurium.
The mark [12] stands for this setting: Salmonella enterica subsp. enterica serovar Typhimurium.
Setting [13] is: Salmonella enterica, TT15151, 20 h.

Sequence of DNA ligase 1 (P18858 whole entry): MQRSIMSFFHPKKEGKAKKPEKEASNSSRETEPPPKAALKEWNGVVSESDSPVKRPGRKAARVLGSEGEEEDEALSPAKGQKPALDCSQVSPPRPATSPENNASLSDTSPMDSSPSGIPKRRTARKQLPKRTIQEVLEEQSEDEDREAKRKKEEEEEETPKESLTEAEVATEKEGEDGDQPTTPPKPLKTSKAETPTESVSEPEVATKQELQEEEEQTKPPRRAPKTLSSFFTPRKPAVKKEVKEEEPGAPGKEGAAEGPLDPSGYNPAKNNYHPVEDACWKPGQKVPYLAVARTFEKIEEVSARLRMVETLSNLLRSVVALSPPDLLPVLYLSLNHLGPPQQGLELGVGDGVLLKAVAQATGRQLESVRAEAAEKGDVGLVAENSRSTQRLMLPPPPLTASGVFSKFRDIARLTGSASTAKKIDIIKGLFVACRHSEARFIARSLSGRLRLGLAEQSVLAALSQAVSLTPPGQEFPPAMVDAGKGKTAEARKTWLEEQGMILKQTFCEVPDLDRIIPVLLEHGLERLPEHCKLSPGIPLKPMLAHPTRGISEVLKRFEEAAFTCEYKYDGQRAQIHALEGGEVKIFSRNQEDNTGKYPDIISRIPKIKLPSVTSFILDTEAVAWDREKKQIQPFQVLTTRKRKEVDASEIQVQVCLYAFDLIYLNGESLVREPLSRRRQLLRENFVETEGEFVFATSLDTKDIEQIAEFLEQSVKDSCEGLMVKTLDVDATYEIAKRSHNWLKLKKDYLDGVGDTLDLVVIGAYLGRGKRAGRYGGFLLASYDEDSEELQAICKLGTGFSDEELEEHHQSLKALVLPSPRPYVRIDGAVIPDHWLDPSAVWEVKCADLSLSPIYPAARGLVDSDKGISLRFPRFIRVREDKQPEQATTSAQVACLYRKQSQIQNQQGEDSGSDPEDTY

In general, MIC refers to the smallest concentration in the dilution series that meets the test's criterion for growth inhibition. In general, IC50 refers to the concentration needed to halve the response being measured. Lower therefore signals inhibition by little substance. Compound `CCCCCCOc1c(C(=O)NO)ccc2ccccc12` had an MIC against Escherichia coli [1] (GR501, 20 h) greater than 200 µg/mL. The Ratio IC50 in assay [2] and in assay [3] was 10 throughout. In addition, the results for the IC50 in assay [4] and in [5] were 13.6 µM and 9.6 µM, respectively.
On to `O=C(NO)c1ccc2ccccc2c1OCc1cccc(Cl)c1`, for which, in the assay on Escherichia coli [1], the MIC result was “inactive”. In addition, the Ratio IC50 in assay [2] and in assay [3] was 10 in each case. The 50% inhibitory concentration (IC50) was determined as 20 µM in assay [4] and 12 µM in [5].
In the case of `O=C(NO)c1ccccc1OCc1cccc(Cl)c1`, the MIC entry with Escherichia coli [1] is “inactive”. The Ratio IC50 in assay [2] and in assay [3] was 10 each time. For the same compound, the results for the IC50 in assay [4] and in assay [5] were 24 µM and 8 µM, respectively.
`C=CCOc1ccc(OCc2cc(Cl)ccc2Cl)cc1C(=O)NO`: the minimal inhibitory concentration (MIC) came out at 400 µg/mL (≈ 1090 µM) against Escherichia coli [1] (GR501, 20 h) and 800 µg/mL (≈ 2170 µM) in the assay with Salmonella typhimurium [7] (setting [13]). For the same compound, the MIC entry in the assay with Salmonella typhimurium [6] (setting [12]) is “inactive”.
In turn, `O=C(NO)c1ccc2ccccc2c1OCc1ccc(Cl)c(Cl)c1` gave an MIC in the assay with Escherichia coli [1] (GR501, 20 h) greater than 200 µg/mL. For the same compound, the Ratio IC50 in [2] and in assay [3] was 10 each time. Further, the IC50 in assay [4] was 10.6 µM; in assay [5], 5.5 µM.
On to `O=C(NO)c1ccccc1OCC(O)Cn1cc(-c2ccccc2)nn1` (stereo not drawn), for which the MIC is 40 µg/mL (≈ 113 µM) with Escherichia coli [1] (GR501, 20 h); 30 µg/mL (≈ 84.7 µM) in the assay on Salmonella typhimurium [6] (Salmonella enterica, LT2, 20 h); 50 µg/mL (≈ 141 µM) with Salmonella typhimurium [7] (setting [13]). Further, the outcome in the assay filed under Bos taurus and with Escherichia coli [8] was inactive. Besides, the Ratio IC50 in [2] and in assay [3] was 10 throughout. For the same compound, the IC50 was 41.8 µM against DNA ligase 1, 11.4 µM in assay [4] and 31.4 µM in [5].
With `C=CCOc1cc(OCc2cc(Cl)ccc2Cl)ccc1C(=O)NO`, the MIC entry in the assay with Escherichia coli [1] and in the assay with Salmonella typhimurium [6] (setting [12]) was “inactive” in each case. In the assay with Salmonella typhimurium [7] (setting [13]), inhibition of growth (MIC) required 200 µg/mL (≈ 543 µM).
On to `O=C(NO)c1ccccc1OCc1ccc(Cl)c(Cl)c1`, for which the MIC result in the assay with Escherichia coli [1] is “inactive”. Moreover, the Ratio IC50 in [2] and in assay [3] was 10 in each case. Moreover, the 50% inhibitory concentration (IC50) in assay [4] is 20 µM; in assay [5], less than 20 µM.
On to `C=CCOc1ccc(OCc2ccccc2)cc1C(=O)NO`, for which the MIC against Escherichia coli [1] (GR501, 20 h) turned out to be 400 µg/mL (≈ 1340 µM); against Salmonella typhimurium [7] (setting [13]), 150 µg/mL (≈ 501 µM). In the assay with Salmonella typhimurium [6] (setting [12]), the MIC result was “inactive”.
As a reminder, the Ki is the dissociation constant of the complex between target and ligand, obtained from inhibition or displacement. Low readings indicate a stronger hold on the target, high ones a looser hold on the target. For the compound `C=CCOc1ccccc1C(=O)NO`, the MIC was determined as 90 µg/mL (≈ 466 µM) in the assay on Escherichia coli [1] (GR501, 20 h); 20 µg/mL (≈ 104 µM) against Salmonella typhimurium [6] (Salmonella enterica, LT2, 20 h); 70 µg/mL (≈ 362 µM) in the assay on Salmonella typhimurium [7] (setting [13]). The outcome in the assay listed under Bos taurus and in the assay on Escherichia coli [8] was inactive. In addition, the Ratio IC50 in assay [2] and in assay [3] was 10 throughout. In addition, the figures for the IC50 (against DNA ligase 1; in [4]; in [5]) were 59.3 µM, 7.07 µM and 62.3 µM, respectively. Also, the outcome in the assay on Salmonella typhimurium [9] and in the assay with Salmonella typhimurium [11] was Active. This compound also displayed a Ki in [10] of 4.3 µM.
Take `C=CCOc1c(OCc2ccccc2)cccc1C(=O)NO`: the MIC entry with Escherichia coli [1], with Salmonella typhimurium [6] (setting [12]) and in the assay on Salmonella typhimurium [7] (setting [12]) was “inactive” throughout.
For `C=CCOc1ccc(OCc2ccc(Br)cc2)cc1C(=O)NO`, the MIC in the assay with Escherichia coli [1] (GR501, 20 h) was 80 µg/mL (≈ 212 µM); with Salmonella typhimurium [7] (setting [13]), 20 µg/mL (≈ 52.9 µM). Also, the MIC result with Salmonella typhimurium [6] (setting [12]) was “inactive”.
With `C=CCOc1cc(OCc2ccc(Br)cc2)ccc1C(=O)NO`, the MIC entry with Escherichia coli [1] and in the assay with Salmonella typhimurium [6] (setting [12]) was “inactive” in each case. Moreover, the MIC against Salmonella typhimurium [7] (setting [13]) was found to be 40 µg/mL (≈ 106 µM).
`C=CCOc1cccc(C(=O)NO)c1OCC=C`: the MIC result in the assay with Escherichia coli [1] and with Salmonella typhimurium [6] (setting [12]) was “inactive” each time. In the assay with Salmonella typhimurium [7] (setting [13]), this compound had an MIC of 400 µg/mL (≈ 1600 µM).
In the case of `C#CCOc1ccc(OCC=C)c(C(=O)NO)c1`, the MIC with Escherichia coli [1] (GR501, 20 h) is 150 µg/mL (≈ 607 µM); in the assay with Salmonella typhimurium [6] (Salmonella enterica, LT2, 20 h), 600 µg/mL (≈ 2430 µM). In the assay on Salmonella typhimurium [7] (setting [12]), the MIC result is “inactive”.
For the compound `C=CCOc1ccc(C(=O)NO)c(OCC=C)c1`, the MIC was found to be 150 µg/mL (≈ 602 µM) against Escherichia coli [1] (GR501, 20 h) and 800 µg/mL (≈ 3210 µM) in the assay with Salmonella typhimurium [6] (Salmonella enterica, LT2, 20 h). Besides, the MIC entry with Salmonella typhimurium [7] (setting [12]) is “inactive”.
As to `C=CCOc1ccc(OCC=C)c(C(=O)NO)c1`, the MIC was 200 µg/mL (≈ 802 µM) with Escherichia coli [1] (GR501, 20 h) and 150 µg/mL (≈ 602 µM) against Salmonella typhimurium [7] (setting [13]). In the assay with Salmonella typhimurium [6] (setting [12]), the MIC result is “inactive”.
